Here are results for 60 molecules from patent publication US12281083B2, “2-substituted amino-naphth (1,2-d) imidazol-5-one compounds of pharmaceutically acceptable salts thereof” (PTC Therapeutics, Inc., priority 2016, dated 2025).

pEC50: −log10 of the molar value.

The subject of the experiment is Friedreich ataxia patient-derived human dermal fibroblasts. Description: Cell viability evaluation test using human dermal fibroblasts derived from a Friedreich ataxia patient (BSO stress). It is filed as cell-based. The note with it: Fibroblast, rescue of cell viability, 30 μM BSO, 48 hours, Calcein-AM fluorescence, no BSO = 100%, BSO only = 0%. How it is done: Cell Viability Evaluation Test Using Human Dermal Fibroblasts Derived from a Friedreich Ataxia Patient
Compounds described herein were tested for their ability to rescue Friedreich ataxia patient-derived dermal fibroblasts stressed by the addition of L-buthionine-(S,R)-sulfoximine (BSO).
A MEMα medium and a Medium 199 medium were obtained from Thermo Scientific, and fetal bovine serum was obtained from DS Pharma. Basic fibroblast growth factor (b-FGF) was purchased from Funakoshi Co., Ltd. and epidermal growth factor (EGF) was purchased from PeproTech Inc. L-Buthionine-(S,R)-sulfoximine and bovine pancreas-derived insulin were purchased from Sigma. Calcein-AM was purchased from DOJINDO. An assay medium is a medium of 64% MEMα medium and 25% Medium 199 medium, and contains 10% fetal bovine serum, EGF whose final concentration is 10 ng/ml, 10 ng/ml of bFGF, and 10 μg/mL insulin. Cells were purchased from Coriell Institute.
A test compound was dissolved in DMSO to make a 1 mM or 10 mM stock solution. From this stock solution, serially diluted solutions were further prepared using DMSO and used in an assay.
Friedreich ataxia patient-derived human dermal fibroblasts were suspended in an assay medium, seeded into a 384-well plate at 650 cells/well/20 μl, and incubated at 37° C. in a 5% carbon dioxide incubator overnight. A test compound solution prepared in an assay medium from the serially diluted solution (DMSO) at 5 times higher than the final concentration was added in 10 μL per well of the cell-seeded plate. Then, 10 μL of 150 μM BSO solution was added. The amount of a reaction solution was adjusted to be finally 50 μL, and the final BSO concentration was made at 30 μM. The plate was incubated at 37° C. in 5% CO2 for 48 hours, and then media were removed from all wells, and 20 μl of a Calcein-AM solution, which had been 550-fold diluted by PBS, was added to each well. The plate was incubated at 37° C. for 20 to 30 minutes, and then fluorescence (485 nm/525 nm of excitation/radiation wavelength) was measured by a fluorescence plate reader.
The degree of the viability of fibroblasts that were not treated with BSO was regarded as 100%, the degree of the viability of cells that were treated with BSO only (without a compound) was regarded as 0%, and the viability of cells that were treated with a compound was calculated.
As usually defined, the pEC50 is −log10 of the EC50, conventionally taken in molar units. For `COc1ccc(C2=C3N=C(N(C)C)N=C3c3ccccc3C2=O)cc1` [Example 1, 2-(Dimethylamino)-4-(4-methoxyphenyl)-5H-naphth[1,2-d]imidazol-5-one], the negative logarithm of the EC50 (pEC50) is 7.00 to 7.70.

For `Cc1ccc(C2=C3N=C(N(C)C)N=C3c3ccccc3C2=O)cc1` [Example 2], the pEC50 is 7.77.

For the molecule `COc1ccc(C2=C3N=C(N(C)C)N=C3c3ccccc3C2=O)cn1` [Example 3], the pEC50 is over 7.70.

`Cc1ccccc1C1=C2N=C(N(C)C)N=C2c2ccccc2C1=O` [Example 4]: the pEC50 was 8.43.

As for `CN(C)C1=NC2=C(c3ccccc3F)C(=O)c3ccccc3C2=N1` [Example 5], the negative logarithm of the EC50 (pEC50) was 7.85.

In the case of `COc1ccc(C2=C3N=C(N(C)C)N=C3c3ccccc3C2=O)c(F)c1` [Example 8], the pEC50 is 8.00.

On to `COc1ccccc1C1=C2N=C(N(C)C)N=C2c2ccccc2C1=O` [Example 10], for which the pEC50 was 8.29.

Take `CN(C)C1=NC2=C(c3ccccc3N3CCOCC3)C(=O)c3ccccc3C2=N1` [Example 11]: the negative-log EC50 (pEC50) is 8.19.

For `COc1cccc(F)c1C1=C2N=C(N(C)C)N=C2c2ccccc2C1=O` [Example 12], the pEC50 is 8.19.

Consider `CN(C)C1=NC2=C(c3ccccc3N3CCCC3)C(=O)c3ccccc3C2=N1` [Example 13], for which the pEC50 was 8.27.

On to `CN(C)C1=NC2=C(c3cccc4cccnc34)C(=O)c3ccccc3C2=N1` [Example 14], for which the pEC50 was 7.39.

With `Cc1cccc(C2=C3N=C(N(C)C)N=C3c3ccccc3C2=O)c1` [Example 15], the pEC50 is 8.22.

In the case of `COc1ccc(C2=C3N=C(N(C)C)N=C3c3ccccc3C2=O)c(C)c1` [Example 16], the pEC50 is 8.04.

Regarding `CN(C)C1=NC2=C(c3ccccc3N(C)C)C(=O)c3ccccc3C2=N1` [Example 17], the negative logarithm of the EC50 (pEC50) was 8.07.

Consider `CN(C)C1=NC2=C(c3ccccc3C(F)(F)F)C(=O)c3ccccc3C2=N1` [Example 20], for which the pEC50 was over 8.52.

As to `Cc1cc(F)ccc1C1=C2N=C(N(C)C)N=C2c2ccccc2C1=O` [Example 21], the pEC50 is 8.10.

On to `Cc1cc(C(F)(F)F)ccc1C1=C2N=C(N(C)C)N=C2c2ccccc2C1=O` [Example 23], for which the negative logarithm of the EC50 (pEC50) is 8.23.

Consider `Cc1cc(OC(F)(F)F)ccc1C1=C2N=C(N(C)C)N=C2c2ccccc2C1=O` [Example 26], for which the negative-log EC50 (pEC50) was 8.14.

Consider `Cc1cnccc1C1=C2N=C(N(C)C)N=C2c2ccccc2C1=O` [Example 28], for which the negative logarithm of the EC50 (pEC50) is 8.32.

As for `COc1ccc(C2=C3N=C(N(C)C)N=C3c3ccccc3C2=O)c(C(F)(F)F)c1` [Example 31], the pEC50 is 7.82.

Consider `Cc1ccncc1C1=C2N=C(N(C)C)N=C2c2ccccc2C1=O` [Example 32], for which the negative logarithm of the EC50 (pEC50) was 8.22.

`CN(C)C1=NC2=C(c3ccccc3Cl)C(=O)c3ccccc3C2=N1` [Example 33]: the pEC50 was 7.80.

For the molecule `Cc1ncccc1C1=C2N=C(N(C)C)N=C2c2ccccc2C1=O` [Example 34], the negative logarithm of the EC50 (pEC50) was 8.15.

For the molecule `Cc1nn(C)c(C)c1C1=C2N=C(N(C)C)N=C2c2ccccc2C1=O` [Example 35], the pEC50 was 8.60.

On to `Cc1cc(C#N)ccc1C1=C2N=C(N(C)C)N=C2c2ccccc2C1=O` [Example 36], for which the pEC50 is 8.02.

Take `CN(C)C1=NC2=C(c3cnn(C)c3)C(=O)c3ccccc3C2=N1` [Example 38]: the pEC50 is 7.73.

Turning to `Cc1noc(C)c1C1=C2N=C(N(C)C)N=C2c2ccccc2C1=O` [Example 39], the negative logarithm of the EC50 (pEC50) was 8.21.

As for `CN(C)C1=NC2=C(c3ccc(N4CCOCC4)cc3)C(=O)c3ccccc3C2=N1` [Example 40], the negative logarithm of the EC50 (pEC50) is 7.94.

Take `CN(C)C(=O)c1cccc(C2=C3N=C(N(C)C)N=C3c3ccccc3C2=O)c1` [Example 41]: the negative logarithm of the EC50 (pEC50) was 7.89.

Turning to `CN(C)C1=NC2=C(c3nn(C)c4ccccc34)C(=O)c3ccccc3C2=N1` [Example 42], the pEC50 is 8.29.

Take `COCc1cccc(C2=C3N=C(N(C)C)N=C3c3ccccc3C2=O)c1` [Example 43]: the negative logarithm of the EC50 (pEC50) was 7.70.

As to `Cc1ccc(C2=C3N=C(N(C)C)N=C3c3ccccc3C2=O)c(C)c1` [Example 44], the pEC50 was 7.77.

Take `CCN(CC)C1=NC2=C(c3c(C)noc3C)C(=O)c3ccccc3C2=N1` [Example 46]: the pEC50 was 7.83.

Consider `Cc1noc(C)c1C1=C2N=C(N3CCOCC3)N=C2c2ccccc2C1=O` [Example 47], for which the pEC50 was 8.31.

Consider `CCN(CC)C1=NC2=C(c3cccc4cn[nH]c34)C(=O)c3ccccc3C2=N1` [Example 51], for which the pEC50 was 7.93.

For the molecule `CN(C)C1=NC2=C(c3ccc4cnn(C)c4c3)C(=O)c3ccccc3C2=N1` [Example 56], the pEC50 is 7.84.

Take `CC(=O)Nc1cccc(C2=C3N=C(N(C)C)N=C3c3ccccc3C2=O)c1` [Example 59]: the negative logarithm of the EC50 (pEC50) is 8.40.

In the case of `Cc1cc(N2CCN(C)CC2)ccc1C1=C2N=C(N(C)C)N=C2c2ccccc2C1=O` [Example 62], the negative logarithm of the EC50 (pEC50) is 8.26.

For the molecule `CCOc1ccc(C2=C3N=C(N(C)C)N=C3c3ccccc3C2=O)c(C)c1` [Example 63], the pEC50 is 7.74.

For the molecule `CCN(CC)C(=O)c1ccccc1C1=C2N=C(N(CC)CC)N=C2c2ccccc2C1=O` [Example 68], the negative-log EC50 (pEC50) is 7.39.

`CN(C)C1=NC2=C(c3ccccc3C#N)C(=O)c3ccccc3C2=N1` [Example 71, 2-[(2-dimethylamino)-5-oxo-5H-naphth[1,2-d]imidazol-4-yl]benzonitrile]: the negative-log EC50 (pEC50) is 7.82.

For `CN(C)C1=NC2=C(c3ccc(N(C)C)cc3)C(=O)c3ccccc3C2=N1` [Example 72], the pEC50 is 7.00 to 7.70.

`CN(C)C1=NC2=C(c3ccccc3N3CCNCC3)C(=O)c3ccccc3C2=N1` [Example 73]: the pEC50 was 8.14.

For the molecule `CC(C)N1CCN(c2ccc(C3=C4N=C(N(C)C)N=C4c4ccccc4C3=O)cc2)CC1` [Example 74], the negative-log EC50 (pEC50) was over 8.52.

Turning to `Cc1nn(C)cc1C1=C2N=C(N(C)C)N=C2c2ccccc2C1=O` [Example 75], the negative logarithm of the EC50 (pEC50) is 7.92.

Consider `Cc1c(C2=C3N=C(N(C)C)N=C3c3ccccc3C2=O)cnn1-c1ccccc1` [Example 76], for which the negative logarithm of the EC50 (pEC50) is 7.69.

In the case of `CN(C)C1=NC2=C(c3ccc4c(c3)OCCN4C)C(=O)c3ccccc3C2=N1` [Example 77], the negative logarithm of the EC50 (pEC50) was 7.77.

For `Cc1nc(-c2ccccc2)sc1C1=C2N=C(N(C)C)N=C2c2ccccc2C1=O` [Example 78], the pEC50 is under 7.00.

Take `CN(C)C1=NC2=C(c3ccc4c(c3)OCCCO4)C(=O)c3ccccc3C2=N1` [Example 79]: the pEC50 was 7.41.

As to `CN1CCN(c2ccc(C3=C4N=C(N(C)C)N=C4c4ccccc4C3=O)cc2)CC1` [Example 80], the negative-log EC50 (pEC50) is 8.00.

For `COc1ccc(C2=C3N=C(N(C)C)N=C3c3ccccc3C2=O)c(Cl)c1` [Example 82], the negative-log EC50 (pEC50) was 7.78.

For `COc1ccc(C)c(C2=C3N=C(N(C)C)N=C3c3ccccc3C2=O)c1` [Example 83], the pEC50 was 7.74.

Turning to `COc1ccc(Cl)c(C2=C3N=C(N(C)C)N=C3c3ccccc3C2=O)c1` [Example 86], the negative logarithm of the EC50 (pEC50) is 7.83.

On to `COc1cccc(C2=C3N=C(N(C)C)N=C3c3ccccc3C2=O)c1C` [Example 87], for which the negative-log EC50 (pEC50) was 7.77.

Take `CCN(CC)C1=NC2=C(c3cccc(OC)c3C)C(=O)c3ccccc3C2=N1` [Example 88]: the negative-log EC50 (pEC50) is 7.77.

In the case of `CC(=O)c1ccc(C2=C3N=C(N(C)C)N=C3c3ccccc3C2=O)c(C)c1` [Example 89], the negative-log EC50 (pEC50) is 7.84.

In the case of `COc1ccc(F)c(C2=C3N=C(N(C)C)N=C3c3ccccc3C2=O)c1` [Example 90], the negative logarithm of the EC50 (pEC50) was 7.85.

Turning to `COc1cccc(C2=C3N=C(N(C)C)N=C3c3ccccc3C2=O)c1F` [Example 92], the negative-log EC50 (pEC50) was 7.52.

In the case of `CCN(CC)C1=NC2=C(c3cccc(OC)c3F)C(=O)c3ccccc3C2=N1` [Example 93], the pEC50 is 7.54.

As for `COc1cccc(C2=C3N=C(N(C)C)N=C3c3ccccc3C2=O)c1Cl` [Example 94], the pEC50 is 7.65.
